We go through one molecule from paper PMC10874727, “The dual GGDEF/EAL domain enzyme PA0285 is a Pseudomonas species housekeeping phosphodiesterase regulating early attachment and biofilm architecture” (The Journal of Biological Chemistry, 2024).

This assay concerns the target T1, PA0285_317-760 (Pseudomonas aeruginosa, UniProt Q9I6K5).
T1 construct: gene PA0285; GGDEF/EAL tandem domains, residues 317-760 of 760; transmembrane and PAS domains absent; GST tag cleaved by thrombin; E. coli BL21(DE3); monomer (copies word: monomeric)
Briefly: HDX-MS. Format: binding. Conditions: 2.5 mM GTP, 1 mM MgCl2, 1 mM MnCl2, pH 7.5, 25 °C; site: GGDEF domain; no diguanylate cyclase turnover.

T1 sequence (Q9I6K5 entry or part of it): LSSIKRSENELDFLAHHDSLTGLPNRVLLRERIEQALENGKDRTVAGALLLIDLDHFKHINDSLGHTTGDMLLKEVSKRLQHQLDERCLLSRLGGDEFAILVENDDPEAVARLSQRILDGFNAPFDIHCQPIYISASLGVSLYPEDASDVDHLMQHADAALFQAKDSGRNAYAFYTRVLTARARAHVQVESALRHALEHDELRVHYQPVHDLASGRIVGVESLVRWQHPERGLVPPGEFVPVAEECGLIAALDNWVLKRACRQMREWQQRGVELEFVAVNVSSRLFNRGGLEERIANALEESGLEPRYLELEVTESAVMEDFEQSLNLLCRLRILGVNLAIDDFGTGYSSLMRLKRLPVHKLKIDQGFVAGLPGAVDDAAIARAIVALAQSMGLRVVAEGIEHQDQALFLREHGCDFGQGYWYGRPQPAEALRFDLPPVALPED

As to `Nc1nc2c(ncn2[C@@H]2O[C@H](COP(=O)(O)OP(=O)(O)OP(=O)(O)O)[C@@H](O)[C@H]2O)c(=O)[nH]1` [GTP], the HDX-MS result is reported as “the neighboring helices exhibited reduced HDX, substantiating GTP binding”.
